Reference: patent US20150238487A1, “NOVEL ERGOLINE DERIVATIVES AND USES THEREOF” (MAP Pharmaceuticals, Inc., priority 2012, published 2015)
pEC50, pIC50: −log10 of the molar value.

Legend:
[1] = tested on: Somatostatin (SST1 ~ SSTS); assay: GTPγ[35S] assay, Somatostatin receptors; format: biochemical, human; settings: CHO-K1 membranes
Procedure: (§1) Receptor […] activity assays were performed using 8′OH-2-CF3-dihydroergotamine (8′OH-2-CF3-DHE). Table 1 summarizes the cell lines (CHO-K1/HEK293 transfected with relevant human receptor) and the assays performed to detect any agonist or antagonist activity.
(§2) GTPγS studies were conducted to monitor agonist activity for 8′OH-2CF3-dihydroergotamine (8′OH-2CF3-DHE) against the receptors indicated in Table 1 above. Reagents used were the following: Assay buffer (20 mM HEPES, pH 7.4; 100 mM NaCl; 10 μg/mL saponin; 30 mM MgCl2); Membranes (recombinant human receptor membrane extracts were thawed on ice and diluted in assay buffer to give 1000 μg/mL ([…]) and kept on ice); GDP (diluted in assay buffer to give 30 μM solution (3 μM final concentration); beads (PVT-WGA (Amersham, RPNQ001), diluted in assay buffer at 25 mg/mL (0.25 mg/10 μL)); GTPγ^35S (Perkin Elmer, NEG030X), diluted in assay buffer to give 0.1 nM (final concentration); and ligand (agonist/antagonist diluted in assay buffer).
(§3) Membranes were mixed with GDP (1:1) and incubated for at least 15 minutes on ice. In parallel GTPγ^35S was mixed with the beads (1:1) just before starting the reaction. […] The plates were then centrifuged for 10 minutes at 2000 rpm and incubated at room temperature for 1 hour and counted for 1 min/well with a Perkin Elmer TopCount reader.

Serotonin 5-HT1A = biological target: T1, Serotonin 5-HT1A (Homo sapiens, UniProt P08908); assay: GTPγ[35S] assay, Serotonin 5-HT1A; format: biochemical; settings: agonism, CHO-K1 membranes
T1 construct: expressed in transfected cells; host or cells: CHO-K1 (membrane extracts)
T1 sequence (P08908 whole entry): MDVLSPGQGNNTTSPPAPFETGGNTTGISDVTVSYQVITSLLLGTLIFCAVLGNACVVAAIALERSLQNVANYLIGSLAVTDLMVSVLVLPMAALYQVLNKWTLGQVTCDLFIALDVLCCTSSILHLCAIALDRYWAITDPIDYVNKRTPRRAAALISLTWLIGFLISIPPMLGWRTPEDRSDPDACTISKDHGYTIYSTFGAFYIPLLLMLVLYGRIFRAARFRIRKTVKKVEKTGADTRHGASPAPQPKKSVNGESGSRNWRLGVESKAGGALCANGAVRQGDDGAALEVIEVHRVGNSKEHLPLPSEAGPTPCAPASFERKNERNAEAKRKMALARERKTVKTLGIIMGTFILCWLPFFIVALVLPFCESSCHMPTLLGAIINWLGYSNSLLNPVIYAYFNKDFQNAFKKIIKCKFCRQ
Procedure: as §1, §2, §3

Serotonin 5-HT1F = biological target: T2, Serotonin 5-HT1F (Homo sapiens, UniProt P30939); assay: cAMP HTRF assay, Serotonin 5-HT1F; format: cell-based; settings: CHO-K1, cAMP
T2 construct: expressed in transfected cells; host or cells: CHO-K1
T2 sequence (P30939 whole entry): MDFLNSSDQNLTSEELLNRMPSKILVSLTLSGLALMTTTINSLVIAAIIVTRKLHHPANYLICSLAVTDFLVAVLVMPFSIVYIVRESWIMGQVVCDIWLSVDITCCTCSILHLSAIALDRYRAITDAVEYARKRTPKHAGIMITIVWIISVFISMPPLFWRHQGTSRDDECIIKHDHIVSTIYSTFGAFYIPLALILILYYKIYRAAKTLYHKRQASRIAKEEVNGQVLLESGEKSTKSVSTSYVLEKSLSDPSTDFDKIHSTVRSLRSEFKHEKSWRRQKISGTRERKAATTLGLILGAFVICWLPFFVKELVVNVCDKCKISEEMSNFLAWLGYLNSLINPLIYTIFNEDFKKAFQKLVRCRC
Procedure: as §1
cAMP HTRF (Gi) studies were conducted to monitor activity for 8′OH-2CF3-dihydroergotamine (8′OH-2CF3-DHE) against the receptors indicated in Table 1 above. Cells expressing the human recombinant receptor of interest were grown in media without antibiotic and detached by gentle flushing with PBS-EDTA (5 mM EDTA), recovered by centrifugation and resuspended in assay buffer (KRH: 5 mM KCl, 1.25 mM MgSO4, 124 mM NaCl, 25 mM HEPES, 13.3 mM glucose, 1.25 mM KH2PO4, 1.45 mM CaCl2, 0.5 g/L BSA). Dose response curves were performed in parallel with the reference compounds. For agonist tests (96-well plates), 12 μL of cells was mixed with 6 μL of the test compound at increasing concentrations and 6 μL of forskolin and then incubated for 30 minutes at room temperature. Lysis buffer was added and after a 1 hour incubation, cAMP concentrations was determined according to the manufacturer specification with the HTRF kit. […] Lysis buffer was added and after a 1 hour incubation, cAMP concentrations were determined according to the manufacturer specification, with the HTRF kit.

Opioid (OP1/OP2/OP3) = assay: GTPγ[35S] assay, Opioid receptors; format: biochemical, human; settings: CHO-K1 membranes
Procedure: as §1, §2, §3

CCK2 = biological target: T3, CCK2 (Homo sapiens, UniProt P32239); assay: Aequorin assay, Cholecystokinin CCK2; format: cell-based; settings: antagonism, CHO-AEQ
T3 construct: expressed in transfected cells; host or cells: CHO-AEQ
T3 sequence (P32239 whole entry): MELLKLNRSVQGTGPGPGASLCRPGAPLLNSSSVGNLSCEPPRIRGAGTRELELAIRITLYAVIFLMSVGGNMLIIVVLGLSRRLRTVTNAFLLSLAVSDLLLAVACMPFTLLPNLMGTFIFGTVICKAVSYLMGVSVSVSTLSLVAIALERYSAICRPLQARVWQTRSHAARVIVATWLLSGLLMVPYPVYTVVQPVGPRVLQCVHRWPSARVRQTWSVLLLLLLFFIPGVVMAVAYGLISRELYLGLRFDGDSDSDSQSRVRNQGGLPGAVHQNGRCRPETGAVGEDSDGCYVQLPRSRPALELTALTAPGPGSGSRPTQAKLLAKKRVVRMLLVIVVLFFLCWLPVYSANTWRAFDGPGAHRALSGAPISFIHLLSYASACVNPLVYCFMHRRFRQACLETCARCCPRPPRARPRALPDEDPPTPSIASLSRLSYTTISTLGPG
Procedure: as §1
Aequorin assays were conducted to monitor activity for 8′OH-2CF3-dihydroergotamine (8′OH-2CF3-DHE) against the receptors indicated in Table 1 above (except for mGlu3 and mGlu5). CHO-K1 cells coexpressing mitochondrial apoaequorin and the recombinant human receptor of interest were grown to mid-log phase in culture media without antibiotics and then detached with PBS-EDTA, centrifuged and resuspended in assay buffer (DMEM/HAM's F12 with HEPES, without phenol red+0.1% BSA, protease free) at a concentration of 1×10^6 cell/mL. […]
50 μL of the cell suspension was mixed with 50 μL of test or reference agonist in a 96-well plate. The resulting emission of light was recorded using Hamamatsu Functional Drug Screening System 6000 (FDSS 6000) luminometer. […]
To standardize the emission of recorded light (and determine of the “100% signal”) across plates and across different experiments, some wells contained 100 μM digitonin or a saturating concentration of ATP (20 μM).

[2] = tested on: Glutamate (mG1u3/mG1u5/mG1u7); assay: Glutamate receptor assays (Aequorin mGlu3/mGlu5, cAMP mGluR7); format: cell-based, human; settings: Aequorin (mGluR3, mGluR5)
Procedure: Receptor […] activity assays were performed using 8′OH-2-CF3-dihydroergotamine (8′OH-2-CF3-DHE). Table 1 summarizes the cell lines (CHO-K1/HEK293 transfected with relevant human receptor) and the assays performed to detect any agonist or antagonist activity. […]
For agonist testing, 30 μL of cell suspension was mixed with 30 μL of test or reference agonist in a 384-well plate. The resulting emission of light was recorded using Hamamatsu Functional Drug Screening System 6000 (FDSS 6000) luminometer. […] The resulting emission of light was recorded using Hamamatsu Functional Drug Screening System 6000 (FDSS 6000) luminometer.
cAMP HTRF (Gi) studies were conducted to monitor activity for 8′OH-2CF3-dihydroergotamine (8′OH-2CF3-DHE) against the receptors indicated in Table 1 above. […] Lysis buffer was added and after a 1 hour incubation, cAMP concentrations was determined according to the manufacturer specification with the HTRF kit. […] Lysis buffer was added and after a 1 hour incubation, cAMP concentrations were determined according to the manufacturer specification, with the HTRF kit.

CN1C[C@H](C(=O)N[C@]2(C)O[C@@]3(O)[C@@H]4CC[C@@H](O)N4C(=O)[C@H](Cc4ccccc4)N3C2=O)C[C@@H]2c3cccc4[nH]c(C(F)(F)F)c(c34)C[C@H]21 [8′OH-2-CF3-DHE, 8′-Hydroxy-2-CF3-dihydroergotamine]
Activity (Agonism: EC50; Antagonism: IC50), Somatostatin (SST1 ~ SSTS) [1]: Inactive | pEC50 (Serotonin 5-HT1A): 6.37 | Activity (Agonism: EC50; Antagonism: IC50), 5-HT1F (Serotonin 5-HT1F): Inactive | Activity (Agonism: EC50; Antagonism: IC50), Opioid (OP1/OP2/OP3) (Opioid (OP1/OP2/OP3)): Inactive | pIC50 (CCK2): < 5.00 | Activity (Agonism: EC50; Antagonism: IC50), Glutamate (mG1u3/mG1u5/mG1u7) [2]: Inactive
